Experimental data as given in US8772330B2, “Inhibitor(s) of transporters or uptake of monoaminergic neurotransmitters” (State of Oregon acting by and through the State Board of …, priority 2009, dated 2014).
Structures can show the parent of a compound that is named as a salt.

Assays:
[1] = target: T1, serotonin (5-HT) transporter (Homo sapiens, UniProt P31645); details: for Slope, Serotonin (5-HT) transporter: Table 1, binding curve slope
[2] = target: T2, norepinephrine (NE) transporter (Homo sapiens, UniProt P23975)
Target sequence in this assay (P23975 whole entry): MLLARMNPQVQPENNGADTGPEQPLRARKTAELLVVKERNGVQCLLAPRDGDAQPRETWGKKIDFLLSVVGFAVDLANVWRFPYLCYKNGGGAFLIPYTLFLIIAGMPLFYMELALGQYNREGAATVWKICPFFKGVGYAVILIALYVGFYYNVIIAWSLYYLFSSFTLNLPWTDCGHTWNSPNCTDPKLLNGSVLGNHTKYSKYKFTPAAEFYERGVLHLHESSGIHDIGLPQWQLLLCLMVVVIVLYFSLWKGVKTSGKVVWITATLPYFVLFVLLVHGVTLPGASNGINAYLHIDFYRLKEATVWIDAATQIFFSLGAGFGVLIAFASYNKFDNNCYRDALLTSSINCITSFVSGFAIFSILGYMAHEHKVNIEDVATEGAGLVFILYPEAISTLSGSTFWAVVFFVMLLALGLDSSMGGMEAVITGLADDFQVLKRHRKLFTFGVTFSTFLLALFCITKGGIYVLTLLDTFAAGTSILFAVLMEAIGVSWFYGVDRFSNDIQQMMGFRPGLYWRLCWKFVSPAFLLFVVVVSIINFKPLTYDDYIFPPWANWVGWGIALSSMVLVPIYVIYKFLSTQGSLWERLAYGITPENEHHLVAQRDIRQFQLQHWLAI

[3] = target: T3, dopamine (DA) transporter (Homo sapiens, UniProt Q01959); details: for Slope, Dopamine (DA) transporter: Table 1, binding curve slope
[4] = target: T1, serotonin (5-HT) transporter; details: Table 2; data derived from literature; read-out: Affinity (Ki), 5-Hydroxy Tryptamine (5-HT) transporter; cited from earlier work
[5] = target: T2, norepinephrine (NE) transporter; details: Table 2; data derived from literature; read-out: Affinity (Ki), Norepinephrine (NE) transporter; cited from earlier work
Target sequence in this assay (P23975 whole entry, species assumed): as the sequence (P23975 whole entry) above

[6] = target: T3, dopamine (DA) transporter; details: Table 2; data derived from literature; read-out: Affinity (Ki), Dopamine (DA) transporter; cited from earlier work

T3 sequence (Q01959 whole entry): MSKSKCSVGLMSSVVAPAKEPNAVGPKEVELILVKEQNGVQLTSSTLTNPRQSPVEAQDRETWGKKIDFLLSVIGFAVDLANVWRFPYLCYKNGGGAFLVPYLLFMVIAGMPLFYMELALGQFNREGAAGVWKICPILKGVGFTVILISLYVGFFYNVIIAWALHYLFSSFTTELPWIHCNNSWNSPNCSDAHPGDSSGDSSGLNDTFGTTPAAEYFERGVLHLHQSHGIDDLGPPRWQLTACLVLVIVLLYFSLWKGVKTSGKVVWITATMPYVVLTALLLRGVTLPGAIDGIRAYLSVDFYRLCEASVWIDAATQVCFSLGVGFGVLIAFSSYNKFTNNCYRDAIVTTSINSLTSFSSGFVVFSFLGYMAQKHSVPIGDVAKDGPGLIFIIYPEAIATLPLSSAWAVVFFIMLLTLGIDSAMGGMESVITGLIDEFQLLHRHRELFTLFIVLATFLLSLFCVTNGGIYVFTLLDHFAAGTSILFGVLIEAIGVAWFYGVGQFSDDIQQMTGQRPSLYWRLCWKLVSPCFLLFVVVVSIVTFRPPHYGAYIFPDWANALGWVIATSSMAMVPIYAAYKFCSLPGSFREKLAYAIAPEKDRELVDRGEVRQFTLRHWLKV
T1 sequence (P31645 whole entry): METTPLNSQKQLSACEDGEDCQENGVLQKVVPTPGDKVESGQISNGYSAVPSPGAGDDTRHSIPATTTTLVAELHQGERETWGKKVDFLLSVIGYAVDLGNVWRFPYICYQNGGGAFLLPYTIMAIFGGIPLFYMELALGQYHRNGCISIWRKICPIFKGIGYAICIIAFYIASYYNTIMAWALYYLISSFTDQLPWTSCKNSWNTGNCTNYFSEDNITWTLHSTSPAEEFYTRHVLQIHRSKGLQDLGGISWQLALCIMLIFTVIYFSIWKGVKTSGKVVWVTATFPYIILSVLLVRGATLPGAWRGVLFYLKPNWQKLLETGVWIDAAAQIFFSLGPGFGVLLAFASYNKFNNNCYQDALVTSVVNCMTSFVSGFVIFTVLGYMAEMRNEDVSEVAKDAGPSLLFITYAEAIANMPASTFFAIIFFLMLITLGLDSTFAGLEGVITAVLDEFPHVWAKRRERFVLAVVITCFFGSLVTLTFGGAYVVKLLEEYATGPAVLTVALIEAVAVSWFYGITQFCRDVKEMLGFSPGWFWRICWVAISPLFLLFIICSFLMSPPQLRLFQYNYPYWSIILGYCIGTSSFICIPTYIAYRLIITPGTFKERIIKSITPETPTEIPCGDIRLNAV

CNCC1CC1(Oc1cccc2ccccc12)c1cccs1 (racemic) [DWJW0003, (Z)-N-Methyl-[2-(naphthalen-1-yloxy)-2-(thiophen-2-yl)cyclopropyl]methanamine Hydrochloride]
Slope, Serotonin (5-HT) transporter [1]: −1.19
Slope, Norepinephrine (NE) transporter ([2]; Table 1, binding curve slope): −0.84
times more potent than DWJW0002 as inhibitor of norepinephrine transporter ([2]; with reference to Table 1): about 9 times
Slope, Dopamine (DA) transporter [3]: −1
times more potent than DWJW0002 as inhibitor of dopamine transporter ([3]; with reference to Table 1): about 2 times

Fc1ccc(C(OCCN2CCN(CCCc3ccccc3)CC2)c2ccc(F)cc2)cc1 [GBR12909, reference compound]
Slope, Dopamine (DA) transporter [3]: −1.25
times more potent than DWJW0002 as inhibitor of dopamine transporter ([3]; with reference to Table 1): 16 times
times more potent than DWJW0003 as inhibitor of dopamine transporter ([3]; with reference to Table 1): 8 times

CN(C)CCCN1c2ccccc2CCc2ccccc21 [Imipramine, reference compound]
Slope, Serotonin (5-HT) transporter [1]: −1.06

C#Cc1ccc([C@@H]2CN3CCC[C@@H]3c3ccccc32)cc1 [JNJ-7925476]
Ki [4]: 0.9 ± 0.1 nM
Ki [5]: 16.6 ± 7 nM
Ki [6]: 5.2 ± 1 nM

CNC[C@@H]1C[C@]1(Oc1cccc2ccccc12)c1cccs1 (racemic) [DWJW0002, (E)-N-Methyl-[2-(naphthalen-1-yloxy)-2-(thiophen-2-yl)cyclopropyl)methanamine Hydrochloride]
Slope, Serotonin (5-HT) transporter [1]: −0.92
times more potent than DWJW0003 as inhibitor of serotonin transporter ([1]; with reference to Table 1): about 3 times
Slope, Dopamine (DA) transporter [3]: −1.11
